Measured values published in article PMC11410249 (PLOS ONE, 2024).

How the values were obtained:
Assay type in all cases: biochemical
[1] = target: T1, 15-lipoxygenase (15-LO) (Homo sapiens, UniProt P16050); experiment: LC-MS/MS enzyme activity assay, […] enzyme, […] arachidonic acid
T1 construct: gene ALOX15
T1 sequence (P16050 2-662): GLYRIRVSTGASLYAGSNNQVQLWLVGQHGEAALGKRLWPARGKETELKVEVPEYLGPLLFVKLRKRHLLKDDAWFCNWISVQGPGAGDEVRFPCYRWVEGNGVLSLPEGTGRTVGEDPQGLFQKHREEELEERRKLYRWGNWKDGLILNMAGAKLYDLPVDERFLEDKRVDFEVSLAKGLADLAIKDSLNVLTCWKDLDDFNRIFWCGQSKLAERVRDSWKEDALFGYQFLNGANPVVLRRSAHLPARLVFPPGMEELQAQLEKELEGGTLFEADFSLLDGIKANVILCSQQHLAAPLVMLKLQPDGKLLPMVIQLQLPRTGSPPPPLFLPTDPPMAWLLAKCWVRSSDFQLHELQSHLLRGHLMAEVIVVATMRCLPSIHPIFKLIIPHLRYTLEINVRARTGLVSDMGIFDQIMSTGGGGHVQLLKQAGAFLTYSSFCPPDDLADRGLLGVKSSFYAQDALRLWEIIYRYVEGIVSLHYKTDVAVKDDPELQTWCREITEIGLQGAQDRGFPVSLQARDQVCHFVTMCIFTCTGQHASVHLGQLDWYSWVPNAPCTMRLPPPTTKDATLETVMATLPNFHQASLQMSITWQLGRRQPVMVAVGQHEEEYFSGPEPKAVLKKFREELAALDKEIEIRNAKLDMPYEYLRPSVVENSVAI

[2] = target: T2, 5-lipoxygenase (5-LO) (Homo sapiens, UniProt P09917); experiment: LC-MS/MS activity assay in lysate of 5-LO-transfected Expi293F cells, […] arachidonic acid
T2 construct: gene ALOX5; full-length human 5-LO
T2 sequence (P09917 1-674): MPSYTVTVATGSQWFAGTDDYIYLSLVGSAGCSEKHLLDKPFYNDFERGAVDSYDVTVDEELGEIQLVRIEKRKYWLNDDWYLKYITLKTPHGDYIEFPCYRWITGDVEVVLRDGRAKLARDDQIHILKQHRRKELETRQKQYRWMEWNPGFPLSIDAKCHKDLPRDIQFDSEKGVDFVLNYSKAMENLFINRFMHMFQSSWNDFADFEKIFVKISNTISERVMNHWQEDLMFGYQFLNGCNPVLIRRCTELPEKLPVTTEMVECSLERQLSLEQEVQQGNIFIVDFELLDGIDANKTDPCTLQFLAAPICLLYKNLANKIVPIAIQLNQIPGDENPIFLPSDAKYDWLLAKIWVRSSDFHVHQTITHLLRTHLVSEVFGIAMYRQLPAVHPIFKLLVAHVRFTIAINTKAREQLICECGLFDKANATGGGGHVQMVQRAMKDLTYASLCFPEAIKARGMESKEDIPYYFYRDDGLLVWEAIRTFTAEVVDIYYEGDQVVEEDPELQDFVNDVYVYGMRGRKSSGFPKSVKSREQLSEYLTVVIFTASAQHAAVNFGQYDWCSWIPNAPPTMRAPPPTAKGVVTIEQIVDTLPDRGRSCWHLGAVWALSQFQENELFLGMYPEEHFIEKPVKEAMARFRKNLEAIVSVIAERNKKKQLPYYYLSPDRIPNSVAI

[3] = target: T3, 12-LO (Homo sapiens, UniProt P18054); experiment: LC-MS/MS enzyme activity assay, […] enzyme, […] arachidonic acid
T3 construct: gene ALOX12
T3 sequence (P18054 1-663): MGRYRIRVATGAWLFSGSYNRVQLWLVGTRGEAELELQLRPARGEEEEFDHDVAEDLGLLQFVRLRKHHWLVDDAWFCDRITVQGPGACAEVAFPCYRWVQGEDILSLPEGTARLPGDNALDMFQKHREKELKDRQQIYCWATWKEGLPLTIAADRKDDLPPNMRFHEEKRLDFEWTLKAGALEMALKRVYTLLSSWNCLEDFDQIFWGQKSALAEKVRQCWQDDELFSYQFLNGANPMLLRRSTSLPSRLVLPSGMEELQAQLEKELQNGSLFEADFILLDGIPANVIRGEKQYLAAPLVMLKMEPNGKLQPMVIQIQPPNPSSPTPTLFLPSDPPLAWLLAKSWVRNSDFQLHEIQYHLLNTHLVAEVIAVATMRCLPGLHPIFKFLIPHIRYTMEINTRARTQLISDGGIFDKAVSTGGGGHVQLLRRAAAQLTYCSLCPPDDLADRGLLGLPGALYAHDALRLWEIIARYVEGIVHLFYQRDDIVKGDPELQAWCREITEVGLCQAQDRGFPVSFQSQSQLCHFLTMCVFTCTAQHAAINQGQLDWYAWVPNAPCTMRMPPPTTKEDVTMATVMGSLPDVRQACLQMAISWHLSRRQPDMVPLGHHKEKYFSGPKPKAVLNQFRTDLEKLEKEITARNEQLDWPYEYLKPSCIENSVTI

[4] = target: T4, cyclooxygenase (COX-2) (Homo sapiens, UniProt P35354); experiment: in vitro enzyme activity assay (product formation by LC-MS/MS)
T4 construct: gene PTGS2
T4 sequence (P35354 18-604): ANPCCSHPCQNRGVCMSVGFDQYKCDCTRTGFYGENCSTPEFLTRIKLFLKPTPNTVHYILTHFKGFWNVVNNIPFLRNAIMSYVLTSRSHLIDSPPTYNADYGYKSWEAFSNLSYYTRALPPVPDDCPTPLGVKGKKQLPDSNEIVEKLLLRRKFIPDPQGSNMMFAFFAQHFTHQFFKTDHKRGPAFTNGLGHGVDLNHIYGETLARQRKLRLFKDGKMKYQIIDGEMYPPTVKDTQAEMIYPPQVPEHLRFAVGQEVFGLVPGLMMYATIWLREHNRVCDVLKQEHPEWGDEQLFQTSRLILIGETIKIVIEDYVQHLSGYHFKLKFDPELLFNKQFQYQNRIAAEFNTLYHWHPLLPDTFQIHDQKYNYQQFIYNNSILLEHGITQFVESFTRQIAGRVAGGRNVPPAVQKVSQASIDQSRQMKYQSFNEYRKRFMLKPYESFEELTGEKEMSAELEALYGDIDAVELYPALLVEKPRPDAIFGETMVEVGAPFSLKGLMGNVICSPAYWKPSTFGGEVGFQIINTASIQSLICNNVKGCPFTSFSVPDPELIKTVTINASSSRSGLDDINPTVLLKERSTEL

Substance: PTC-041 hydroquinone
- IC50 [1]: 0.95 µM
- IC50 [2]: 0.46 µM
- IC50 [3]: 5.2 µM
- IC50 [4]: 9.6 µM
